# Square brackets hold non-standard residues; d marks the D form. Peptide text beside a SMILES is read from it. Phe(3-F) = N[C@@H](Cc1cccc(F)c1)C(=O)O; hPhe = N[C@@H](CCc1ccccc1)C(=O)O; Abu = CC[C@H](N)C(=O)O; azaGly = NNC(=O)O
# Key:
# [1] = target: T1, Human liver cathepsin B (Homo sapiens, UniProt P07858); experiment: Human liver cathepsin B assay; assay type: biochemical
# T1 construct: Human liver cathepsin B (Enzyme System Products, CAT-B); purchased Enzyme System Products CAT-B; host or cells: human liver
# Description: Human Liver Cathepsin B Assay
# Using this assay, the selectivity of a compound of the invention for hDPP-I over human cathepsin B was determined, using a fluorogenic substrate.
# 0.1 M MES buffer (1.95 g; M=195.2) and 1 mM EDTA (37 mg; M=372.2) were mixed in 100 mL H2O and pH adjusted to 6.1. DTT (10 μL, 0.5 M) was added for activation of the enzyme […].
# Human liver cathepsin B (Enzyme System Products, CAT-B; stock 25 μg/54 μL=463 ng/μL). One aliquot was diluted to a concentration of 40 ng/μL by adding 53 μL assay buffer (without DTT). Just prior to experiment, two more dilution steps were performed: 4 ng/μL: 5 μL (40 ng/μL)+45 μL buffer (without DTT) 0.1 ng/μL: 5 μL (4 ng/μL)+[…] buffer (without DTT)
# Boc-Leu-Arg-Arg-AFC.2TFA (Enzyme System Products AFC113). Stock solution made (20 mM; 15.1 mg dissolved in 1 ml DMSO). Diluted further in H2O to 10 mM. Km for this substrate has been determined to be 600 μM.
# The assay was performed in 96-well plates. 84 μL assay buffer was added to the well followed by 10 μL 1% DMSO in assay buffer (control) or a compound, of the invention (10 μM in the assay). […] The excitation wavelength was 400 nm, and the emission was measured at 505 nm for 10-20 minutes at 37° C. […] In the software (SOFTmax Pro) used for data collection from the fluorometer (Molecular Devices: Gemini XS), it was ensured that the measured slopes were linear (R^2>0.99). […]
# [2] = target: T2, CYP3A4 (Homo sapiens, UniProt P08684); experiment: CYP3A4 assay (Vivid CYP3A4 Red Screening Kit); assay type: in vitro ADME; details: read-out: Metabolism: CYP enzymes (20 μM cutoff or IC50) CYP3A4
# T2 construct: purchased PanVera Vivid CYP3A4 Red Screening Kit
# Description: Tubes thawed on ice. 2× reaction buffer dispensed (room temperature) in two eppendorf tubes (for Mix A and Mix B).
# Controls or compounds of the invention: Diluted to a concentration of 50 μM. Positive control compound: α-naphthoflavone.
# Negative controls: DMSO and H2O.
# Mix A: 485 μL reaction buffer, 10 μL regeneration system, 5 μL Baculosome reagent. Mixed gently and placed on ice.
# Mix B: 88.5 μL reaction buffer, 1.5 μL substrate, 10 μL 10 mM NADP^+.
# In a 96-well plate (Costar c-3904), 40 μL of 50 μM sample dispensed. 50 μl Mix A added. Incubated 20 min. at rt. Then, 10 μl of Mix B added. Fluorescence determined (Molecular Devices, SPECTRAmax Gemini EM): Ex: 409 nm, Em: 460 nm, at 37° C. for 20 min. (Automix: 5 s, top read.).
# Following the procedure for CYP1A2, using the appropriate kits below, the effect of a compound of the invention on the other CYP enzymes was determined:
# Vivid® CYP3A4 Red Screening Kit from PanVera.
# [3] = target: T3, Human cathepsin G (Homo sapiens, UniProt P08311); experiment: Human cathepsin G assay; assay type: biochemical
# T3 construct: purchased Calbiochem 219373
# T3 sequence (P08311 21-244): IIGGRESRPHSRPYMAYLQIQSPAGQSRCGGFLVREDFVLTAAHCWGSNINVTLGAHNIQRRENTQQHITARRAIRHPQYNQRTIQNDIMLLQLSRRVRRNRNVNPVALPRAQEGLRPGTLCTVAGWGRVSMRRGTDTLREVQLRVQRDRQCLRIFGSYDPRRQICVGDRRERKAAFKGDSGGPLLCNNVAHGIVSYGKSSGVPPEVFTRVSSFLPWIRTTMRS
# Description: Using this assay, the selectivity of a compound of the invention for hDPP-I over human cathepsin G was determined, using a chromogenic substrate.
# Buffer containing 100 mM Tris/HCl pH 8.3 (25° C.), 500 mM NaCl, and 20 mM CaCl2 prepared. DTNB (5,5′-dithio-bis(2-nitrobenzoic acid)) was added just prior to experiment (10 μL 1.25 mM/well).
# Human cathepsin G (Calbiochem Cat # 219373, 50 ng/μL 0.1 mU/μL stock) was reconstituted in 50 mM sodium acetate and 150 mM NaCl (pH 5.5), and stored at −20° C. Diluted to 2 ng/μL in buffer just prior to experiment.
# Suc-Ala-Ala-Pro-Phel-SBzl (Bachem Cat # 4009924.0050) diluted to 1 mM in buffer from 10 mM stock in buffer. Km determined to 100-200 μM.
# The assay was performed in 96-well plates. 60 μL assay buffer was added to the well followed by 10 μL DTNB (1.25 mM), and 10 μL of a compound of the invention (100 μM, diluted with assay buffer to give 10 μM in the assay). Then 10 μL (2 ng/μL) enzyme was added, and 10 min. later (at 37° C.) 10 μL substrate (100 μM final concentration) was added. The absorption was measured at 410 nm for 10 minutes at 37° C. Each measurement was made in duplicate. In the software (SOFTmax Pro) used for data collection from the UV-spectrometer it was ensured that the measured slopes were linear (R^2>0.99). […]
# T2 sequence (P08684 whole entry): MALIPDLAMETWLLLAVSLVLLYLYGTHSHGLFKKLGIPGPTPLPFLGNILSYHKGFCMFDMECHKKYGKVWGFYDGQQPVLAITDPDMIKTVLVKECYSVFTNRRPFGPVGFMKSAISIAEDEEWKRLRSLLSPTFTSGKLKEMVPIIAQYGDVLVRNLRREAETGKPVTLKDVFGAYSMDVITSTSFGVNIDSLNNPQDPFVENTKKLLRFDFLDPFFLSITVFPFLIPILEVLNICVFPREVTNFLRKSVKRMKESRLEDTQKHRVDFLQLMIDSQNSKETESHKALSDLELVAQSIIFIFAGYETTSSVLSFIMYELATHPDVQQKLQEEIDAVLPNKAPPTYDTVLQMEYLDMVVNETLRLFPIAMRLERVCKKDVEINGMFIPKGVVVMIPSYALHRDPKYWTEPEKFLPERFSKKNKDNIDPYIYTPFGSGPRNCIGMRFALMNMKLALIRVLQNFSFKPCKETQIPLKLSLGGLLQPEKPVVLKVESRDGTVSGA
smiles,measurement,setting,value
"CC[C@H](N)C(=O)NNC(=O)N[C@@H](CCc1ccccc1)C(=O)N[C@@H](Cc1cccc(F)c1)C(N)=O [Example 11, 1-(2S-2-Aminobutanoyl)-4-[2S-N-[2S-3-(m-fluorophenyl)propan-2-yl-amide]-4-phenylbutan-2-yl-amide]semicarbazide] (H-[Abu][azaGly][hPhe][Phe(3-F)]-NH2)",Inhibition of Cathepsin B (in words),[1],does not inhibit
same,IC50,"[1]; human liver cathepsin B, read-out: Secondary enzymatic screening (10 μM cutoff or IC50) Cathepsin B",4.5 µM
same,IC50,[2],0.6 µM
same,Inhibition of Cathepsin G (in words),[3],does not inhibit
same,IC50,"[3]; human cathepsin G, 10 μM cutoff, read-out: Secondary enzymatic screening (10 μM cutoff or IC50) Cathepsin G",> 10 µM
